Assay results published in patent publication US8748481B2, “Method for treating gastrointestinal disorder” (Sucampo AG, priority 2004, dated 2014).

Experiments:
[1] = tested on: subjects with occasional constipation; test: Severity of constipation, abdominal bloating and abdominal discomfort during 6 and 12 months treatment (Example 1); type: in vivo, human; details: 48 μg/day, 6 months and 12 months treatment
Description: Multi-center, open-label study was performed to evaluate the safety of 48 μg of Compound A (13,14-dihydro-15-keto-16,16-difluoro-PGE1) (24 μg of Compound A b.i.d) when administered daily for 24 weeks (6 months) or 48 weeks (12 months) to subjects with occasional constipation. […] After 14-day drug-free washout period, they received 48 μg of Compound A (24 μg of Compound A b.i.d) orally for 48 weeks.
Each parameter (Severity of Constipation, Abdominal bloating or Abdominal discomfort) was evaluated on the scale of: 0 (absent), 1 (mild), 2 (moderate), 3 (severe) and 4 (very severe) in the patients during 6 months (n=246) or 12 months (n=304) treatments.

[2] = tested on: patients with irritable bowel syndrome (IBS); test: 48-week treatment of IBS patients: abdominal discomfort, abdominal bloating, severity of constipation (Example 3); type: in vivo, human; design: key to Abdominal discomfort, Change from Baseline, Median / Abdominal bloating, Change from Baseline, Median: change on 0 (absent) to 4 (very severe) scale; key to Severity of Constipation, Change from Baseline, Median: change on 0 (very loose) to 4 (very hard) scale; details: for Abdominal bloating, Mean ± SD / Abdominal bloating, Median / Abdominal discomfort, Mean ± SD / Abdominal discomfort, Median / Severity of Constipation, Mean ± SD / Severity of Constipation, Median: scale 0-4
Description: Patients with irritable bowel syndrome (IBS) were treated with 48 μg of Compound A (24 μg of Compound A b.i.d) for 48 weeks.
In this study, we evaluated the following parameters. • 1) Abdominal discomfort • 2) Abdominal bloating • 3) Severity of Constipation
Each of Abdominal discomfort and Abdominal bloating was evaluated on a scale of: 0 (absent), 1 (mild), 2 (moderate), 3 (severe) and 4 (very severe) in the patients. Severity of Constipation was evaluated on a scale of: 0 (very loose), 1: (loose), 2: (normal), 3 (hard), 4 (very hard) in the patients.

SMILES: CCCCC(F)(F)C(=O)CCC1C(O)CC(=O)C1CCCCCCC(=O)O (centres unmarked) [Compound A, 13,14-dihydro-15-keto-16,16-difluoro-PGE1]
- Efficacy on severity of constipation, abdominal bloating and abdominal discomfort (FIGS. 1 to 6) [1]: effective
- Efficacy in IBS patients (Tables 2 to 4) ([2]; 48 μg/day, 12 months treatment): effective
- Abdominal bloating, Mean ± SD ([2]; Baseline): 2.23 ± 0.927 (183)
- Abdominal bloating, Median ([2]; Baseline): 2.00
- Abdominal discomfort, Mean ± SD ([2]; Baseline): 1.95 ± 0.850 (183)
- Abdominal discomfort, Median ([2]; Baseline): 2.00
- Severity of Constipation, Mean ± SD ([2]; Baseline): 2.95 ± 0.751 (183)
- Severity of Constipation, Median ([2]; Baseline): 3.00
- Abdominal bloating, Change from Baseline, Mean ± SD ([2]; End of Treatment, 48 μg/day): −0.73 ± 1.075 (183)
- Abdominal bloating, Change from Baseline, Median ([2]; End of Treatment, 48 μg/day): −1.00
- Abdominal discomfort, Change from Baseline, Mean ± SD ([2]; End of Treatment, 48 μg/day): −0.66 ± 1.112 (183)
- Abdominal discomfort, Change from Baseline, Median ([2]; End of Treatment, 48 μg/day): −1.00
- Severity of Constipation, Change from Baseline, Mean ± SD ([2]; End of Treatment, 48 μg/day): −1.11 ± 1.148 (183)
- Severity of Constipation, Change from Baseline, Median ([2]; End of Treatment, 48 μg/day): −1.00
- Abdominal bloating, Mean ± SD ([2]; End of Treatment, 48 μg/day): 1.50 ± 1.005 (183)
- Abdominal bloating, Median ([2]; End of Treatment, 48 μg/day): 1.00
- Abdominal discomfort, Mean ± SD ([2]; End of Treatment, 48 μg/day): 1.28 ± 1.020 (183)
- Abdominal discomfort, Median ([2]; End of Treatment, 48 μg/day): 1.00
- Severity of Constipation, Mean ± SD ([2]; End of Treatment, 48 μg/day): 1.84 ± 1.120 (183)
- Severity of Constipation, Median ([2]; End of Treatment, 48 μg/day): 2.00
- Abdominal bloating, Change from Baseline, Mean ± SD ([2]; Follow-Up): −0.69 ± 1.109 (121)
- Abdominal bloating, Change from Baseline, Median ([2]; Follow-Up): −1.00
- Abdominal discomfort, Change from Baseline, Mean ± SD ([2]; Follow-Up): −0.55 ± 1.080 (121)
- Abdominal discomfort, Change from Baseline, Median ([2]; Follow-Up): −1.00
- Severity of Constipation, Change from Baseline, Mean ± SD ([2]; Follow-Up): −0.88 ± 1.122 (121)
- Severity of Constipation, Change from Baseline, Median ([2]; Follow-Up): −1.00
- Abdominal bloating, Mean ± SD ([2]; Follow-Up): 1.55 ± 0.957 (121)
- Abdominal bloating, Median ([2]; Follow-Up): 2.00
- Abdominal discomfort, Mean ± SD ([2]; Follow-Up): 1.40 ± 0.996 (121)
- Abdominal discomfort, Median ([2]; Follow-Up): 1.00
- Severity of Constipation, Mean ± SD ([2]; Follow-Up): 2.07 ± 0.946 (121)
- Severity of Constipation, Median ([2]; Follow-Up): 2.00
- Abdominal bloating, Change from Baseline, Mean ± SD ([2]; Week 12, 48 μg/day): −0.84 ± 1.045 (135)
- Abdominal bloating, Change from Baseline, Median ([2]; Week 12, 48 μg/day): −1.00
- Abdominal discomfort, Change from Baseline, Mean ± SD ([2]; Week 12, 48 μg/day): −0.79 ± 0.993 (135)
- Abdominal discomfort, Change from Baseline, Median ([2]; Week 12, 48 μg/day): −1.00
- Severity of Constipation, Change from Baseline, Mean ± SD ([2]; Week 12, 48 μg/day): −1.16 ± 1.099 (135)
- Severity of Constipation, Change from Baseline, Median ([2]; Week 12, 48 μg/day): −1.00
- Abdominal bloating, Mean ± SD ([2]; Week 12, 48 μg/day): 1.43 ± 0.919 (135)
- Abdominal bloating, Median ([2]; Week 12, 48 μg/day): 1.00
- Abdominal discomfort, Mean ± SD ([2]; Week 12, 48 μg/day): 1.16 ± 0.836 (135)
- Abdominal discomfort, Median ([2]; Week 12, 48 μg/day): 1.00
- Severity of Constipation, Mean ± SD ([2]; Week 12, 48 μg/day): 1.76 ± 1.003 (135)
- Severity of Constipation, Median ([2]; Week 12, 48 μg/day): 2.00
- Abdominal bloating, Change from Baseline, Mean ± SD ([2]; Week 18, 48 μg/day): −1.07 ± 1.068 (111)
- Abdominal bloating, Change from Baseline, Median ([2]; Week 18, 48 μg/day): −1.00
- Abdominal discomfort, Change from Baseline, Mean ± SD ([2]; Week 18, 48 μg/day): −0.97 ± 1.031 (111)
- Abdominal discomfort, Change from Baseline, Median ([2]; Week 18, 48 μg/day): −1.00
- Severity of Constipation, Change from Baseline, Mean ± SD ([2]; Week 18, 48 μg/day): −1.59 ± 1.148 (111)
- Severity of Constipation, Change from Baseline, Median ([2]; Week 18, 48 μg/day): −2.00
- Abdominal bloating, Mean ± SD ([2]; Week 18, 48 μg/day): 1.19 ± 0.837 (111)
- Abdominal bloating, Median ([2]; Week 18, 48 μg/day): 1.00
- Abdominal discomfort, Mean ± SD ([2]; Week 18, 48 μg/day): 0.98 ± 0.874 (111)
- Abdominal discomfort, Median ([2]; Week 18, 48 μg/day): 1.00
- Severity of Constipation, Mean ± SD ([2]; Week 18, 48 μg/day): 1.33 ± 0.985 (111)
- Severity of Constipation, Median ([2]; Week 18, 48 μg/day): 1.00
- Abdominal bloating, Change from Baseline, Mean ± SD ([2]; Week 24, 48 μg/day): −0.95 ± 1.102 (107)
- Abdominal bloating, Change from Baseline, Median ([2]; Week 24, 48 μg/day): −1.00
- Abdominal discomfort, Change from Baseline, Mean ± SD ([2]; Week 24, 48 μg/day): −0.82 ± 1.035 (107)
- Abdominal discomfort, Change from Baseline, Median ([2]; Week 24, 48 μg/day): −1.00
- Severity of Constipation, Change from Baseline, Mean ± SD ([2]; Week 24, 48 μg/day): −1.40 ± 1.036 (107)
- Severity of Constipation, Change from Baseline, Median ([2]; Week 24, 48 μg/day): −1.00
- Abdominal bloating, Mean ± SD ([2]; Week 24, 48 μg/day): 1.26 ± 0.915 (107)
- Abdominal bloating, Median ([2]; Week 24, 48 μg/day): 1.00
- Abdominal discomfort, Mean ± SD ([2]; Week 24, 48 μg/day): 1.09 ± 0.917 (107)
- Abdominal discomfort, Median ([2]; Week 24, 48 μg/day): 1.00
- Severity of Constipation, Mean ± SD ([2]; Week 24, 48 μg/day): 1.50 ± 0.965 (107)
- Severity of Constipation, Median ([2]; Week 24, 48 μg/day): 1.00
- Abdominal bloating, Change from Baseline, Mean ± SD ([2]; Week 36, 48 μg/day): −1.00 ± 1.134 (57)
- Abdominal bloating, Change from Baseline, Median ([2]; Week 36, 48 μg/day): −1.00
- Abdominal discomfort, Change from Baseline, Mean ± SD ([2]; Week 36, 48 μg/day): −0.77 ± 0.926 (57)
- Abdominal discomfort, Change from Baseline, Median ([2]; Week 36, 48 μg/day): −1.00
- Severity of Constipation, Change from Baseline, Mean ± SD ([2]; Week 36, 48 μg/day): −1.33 ± 1.123 (57)
- Severity of Constipation, Change from Baseline, Median ([2]; Week 36, 48 μg/day): −1.00
- Abdominal bloating, Mean ± SD ([2]; Week 36, 48 μg/day): 1.05 ± 0.854 (57)
- Abdominal bloating, Median ([2]; Week 36, 48 μg/day): 1.00
- Abdominal discomfort, Mean ± SD ([2]; Week 36, 48 μg/day): 0.93 ± 0.799 (57)
- Abdominal discomfort, Median ([2]; Week 36, 48 μg/day): 1.00
- Severity of Constipation, Mean ± SD ([2]; Week 36, 48 μg/day): 1.39 ± 0.921 (57)
- Severity of Constipation, Median ([2]; Week 36, 48 μg/day): 1.00
- Abdominal bloating, Change from Baseline, Mean ± SD ([2]; Week 48, 48 μg/day): −0.94 ± 0.802 (52)
- Abdominal bloating, Change from Baseline, Median ([2]; Week 48, 48 μg/day): −1.00
- Abdominal discomfort, Change from Baseline, Mean ± SD ([2]; Week 48, 48 μg/day): −0.81 ± 0.908 (52)
- Abdominal discomfort, Change from Baseline, Median ([2]; Week 48, 48 μg/day): −1.00
- Severity of Constipation, Change from Baseline, Mean ± SD ([2]; Week 48, 48 μg/day): −1.37 ± 1.095 (51)
- Severity of Constipation, Change from Baseline, Median ([2]; Week 48, 48 μg/day): −1.00
- Abdominal bloating, Mean ± SD ([2]; Week 48, 48 μg/day): 1.12 ± 0.832 (52)
- Abdominal bloating, Median ([2]; Week 48, 48 μg/day): 1.00
- Abdominal discomfort, Mean ± SD ([2]; Week 48, 48 μg/day): 0.87 ± 0.929 (52)
- Abdominal discomfort, Median ([2]; Week 48, 48 μg/day): 1.00
- Severity of Constipation, Mean ± SD ([2]; Week 48, 48 μg/day): 1.37 ± 0.894 (51)
- Severity of Constipation, Median ([2]; Week 48, 48 μg/day): 1.00
